Here are results for two compounds from patent US9073858B2, “Methods of targeted drug development” (priority 2010, dated 2015).

For one data set, the system named is HT-29 cells. As to the kind of experiment: HT-29 Cell Proliferation Assay (MTT). Type of data set: cell-based. The note with it: Homo sapiens, HT-29, 72 h, read-out: IC50 Value (μM) HT-29 Cells.
Data set [1] can be described thus: Pharmacokinetics, intravenous and oral dose. The note with it: in vivo; for Cmax: plasma; for half-life: read-out: Half-life (t1/2; h) (converted). Details: species or system male CD-1 mice. The protocol: Plasma levels of the test compounds were determined by LC-MS/MS. Data was analyzed by non compartmental pharmacokinetic model by using WinNonlin.
For data set [2], the system named is caspase 3,7 activity in A431 cells. As to the kind of experiment: cells. The text has this:
As described below, the capsase 3,7 assay uses the Promega Caspase-Glo 3/7 assay kit (cat no. G8092).
The Caspase-Glo® 3/7 Assay is a luminescent assay that measures caspase-3 and −7 activities in purified enzyme preparations or cultures of adherent or suspension cells. The assay provides a proluminescent caspase-3/7 substrate, which contains the tetrapeptide sequence, DEVD. This substrate is cleaved to release aminoluciferin, a substrate of luciferase used in the production of light. The Caspase-Glo® 3/7 Reagent has been optimized for caspase activity, luciferase activity and cell lysis. The addition of the single Caspase-Glo® 3/7 Reagent in an “add-mix-measure” format results in cell lysis, followed by caspase cleavage of the substrate and generation of a “glow-type” luminescent signal. The Caspase-Glo® 3/7 Assay is designed for use with multiwell plate formats, making it ideal for automated high-throughput screening of caspase activity or apoptosis.
Staurosporine was used as a positive control.
For the capsase 3,7 assay, cells were incubated for 5.5 hrs at 37° C., 5% CO2. The plate was removed from the incubator and equilibrated to room temperature. After 30 min, 25 μl Caspase 3/7 detection reagent (Promega Caspase-Glo 3/7 assay kit, cat no. G8092) was added to each well. The plate was covered with tin foil and shaken on a plate shaker at speed 4 for 3 min. The plate was then incubated for an additional 60 min at room temperature. Luminescence was detected using the PolarStar plate reader.
All statistical analyses were done using GraphPad Prism.
The assay was stopped after 6 hrs and the presence of caspase was measured using the Promega Caspase-Glo® 3/7 Assay.

[3] abbreviates: mouse, iv, 1 mg/kg, male CD-1 mice.
Where [4] appears, read: mouse, po, 5 mg/kg, male CD-1 mice.
The mark [5] stands for this setting: mouse, po, 5 mg/kg, male CD-1 mice, read-out: Tmax.
The mark [6] stands for this setting: Homo sapiens, A-431, read-out: Total Apoptosis (increase in caspase 3,7 activity as percentage of the maximal response).

Read-outs that look alike come from different tables or passages of the source.

With `Cc1cc(Cl)cnc1NC(c1ccc(Cl)cc1Cl)c1ccc2cccnc2c1O` (stereo not drawn) [AD4-13130], the IC50 with HT-29 cells was determined as 0.64 µM. In addition, in data set [1] (male, CD-1, mouse, iv, 1 mg/kg), the AUC stood at 609 ng·h/mL and the Tmax turned out to be 4.98 min. The AUC in data set [1] (male, CD-1, mouse, po, 5 mg/kg) came to 278 ng·h/mL. Moreover, in data set [1] (setting [3]), the Vd stood at 3.24 L/kg, the clearance is 27.3 mL/min/kg, the Cmax worked out at 669 ± 45 ng/mL and the half-life is 112 min. Besides, the concentration in data set [1] (setting [4]) peaked (Cmax) at 131 ± 51 ng/mL. For the same compound, the Tmax in data set [1] (setting [5]) was 60 min.
Regarding `Cc1c(Cl)cnc(NC(c2cccc(Cl)c2Cl)c2ccc3cccnc3c2O)c1F` (stereo not drawn) [AD4-13192], the IC50 in the data set on HT-29 cells was determined as 2.2 µM. In data set [2] (setting [6]), the Emax at 8 µM worked out at 29% and the Emax at 16 µM turned out to be 32%. For the same compound, the “effect on Tarceva to increase caspase 3,7 activity” value in data set [2] (Tarceva plus compound, A431 cells, 6 hrs) is listed as “synergistic (greater-than-additive) effect”. For the same compound, the “Ability to Synergize with Tarceva” value in data set [2] (caspase 3,7 activity, A431 cells) is “+++ (0.3-0.7 Synergism)”. Further, in data set [1] (male, CD-1, mouse, iv, 1 mg/kg), the AUC was 1390 ng·h/mL and the Tmax was determined as 4.98 min. The AUC in data set [1] (male, CD-1, mouse, po, 5 mg/kg) worked out at 115 ng·h/mL. Moreover, in data set [1] (setting [3]), the Vd was found to be 0.56 L/kg, the clearance is 12 mL/min/kg, the concentration peaked (Cmax) at 3550 ± 571 ng/mL and the half-life was 88.2 min. The same compound came in with a Cmax in data set [1] (setting [4]) of 59 ± 21 ng/mL. Moreover, the Tmax in data set [1] (setting [5]) amounted to 30 min.

For orientation: IC50 means the concentration that inhibits the measured activity by half. One may read the AUC as concentration integrated over time. The term Tmax denotes the time at which the peak concentration occurs. What is called Cmax is the peak of the concentration-time curve.
